One may read the IC50 as the concentration that gives 50% inhibition.

For one molecule, IC50 and minimum effective dose results are on record in US7034047B2, “Triazole derivative” (Astellas Pharma, Inc., priority 2000, dated 2006).

SMILES strings stand for the structures.

The target of assay [1] is T1, GLYT1 subtype of the glycine transporter (Rattus norvegicus, UniProt P28572).
T1 construct: C6 glioma cell expressing GLYT1 subtype of the glycine transporter; host or cells: C6 glioma cells
T1 sequence (P28572 1-638): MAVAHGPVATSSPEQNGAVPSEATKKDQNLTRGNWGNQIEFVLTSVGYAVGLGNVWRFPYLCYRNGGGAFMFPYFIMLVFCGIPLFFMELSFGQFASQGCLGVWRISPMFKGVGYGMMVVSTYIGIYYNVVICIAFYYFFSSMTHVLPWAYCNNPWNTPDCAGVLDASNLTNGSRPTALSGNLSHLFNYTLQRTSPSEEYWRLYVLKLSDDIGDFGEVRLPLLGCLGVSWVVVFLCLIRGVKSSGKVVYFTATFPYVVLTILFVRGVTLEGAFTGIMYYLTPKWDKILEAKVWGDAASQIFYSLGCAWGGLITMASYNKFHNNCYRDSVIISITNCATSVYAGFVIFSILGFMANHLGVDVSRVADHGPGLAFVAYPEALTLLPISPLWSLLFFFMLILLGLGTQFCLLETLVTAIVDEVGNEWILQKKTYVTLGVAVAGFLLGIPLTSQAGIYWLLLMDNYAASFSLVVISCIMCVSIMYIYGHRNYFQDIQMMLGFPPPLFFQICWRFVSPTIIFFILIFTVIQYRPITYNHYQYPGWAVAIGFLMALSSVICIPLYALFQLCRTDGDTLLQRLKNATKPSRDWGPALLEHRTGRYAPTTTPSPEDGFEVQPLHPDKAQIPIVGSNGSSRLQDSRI
The assay can be described thus: [3H]-glycine uptake assay in C6 glioma cells (action of inhibiting glycine transporter). The settings on record: 20 min at 37° C., read-out: GLYT-inhibiting activity IC50. Format: cell-based. As to the method: 1. Action of Inhibiting Glycine Transporter
C6 glioma cell (American Type Culture Collection) was cultured in DMEM containing 10% fetal bovine serum, 100 units/ml penicillin G and 0.1 mg/ml streptomycin sulfate in a CO2 incubator under conditions of 5% CO2 and 37° C.
[^3H]-glycine uptake was performed by the method of Gomeza, et al.
C6 glioma cells were plated out at a concentration of 2×10^4 cells/well in a 96-well plate (Culturplate, Packard Co.), for culturing for 2 days. Subsequently, [^3H]-glycine uptake was tested. The cell was rinsed once in a buffer (150 mM NaCl, 5 mM KCl, 1 mM CaCl2, 1 mM MgCl2, 10 mM glucose, 5 mM L-alanine, 10 mM Hepes-Na, pH 7.4), followed by subsequent addition of the buffer, for incubation at 37° C. for 10 minutes.
After incubation, the buffer was exchanged to a reaction buffer including [^3H]-glycine (about 0.2 μM, 41 Ci/mmol, New England Nuclear)and a compound to be assessed, for incubation at 37° C. for another 20 minutes. After 20-min reaction, the reaction mixture was rinsed in ice-cold PBS (phosphate buffered saline). The cell was dissolved in 0.1N NaOH solution, to assay the radioactivity incorporated with a liquid scintillation counter. The specific incorporation was defined as a portion substituted with 3 mM sarcosine in the total incorporation. The test compound was assessed by determining the incorporation-inhibiting ratio of the specific incorporation.

Assay [2] deals with (+)-HA966-induced learning disability. Kind of assay: (+)-HA966-induced learning disability (mouse passive avoidance test). Format: in vivo, male ddY mouse. Particulars: dosed intraperitoneally; step-through latency, p<0.05. An excerpt: 3. (+)-HA966-Induced Learning Disability (Mouse Passive Avoidance Test)
• Animal: male ddY mouse (Nippon SLC; age 7 to 9 weeks at training) was used. 16 to 32 animals were used per one group. <Experimental Procedures> Preparation of Pharmaceutical Drugs • (1) A test compound for oral administration was suspended in aqueous 0.5%methyl cellulose solution, and for intraperitoneal administration was suspended in solution dissolved 0.5% of methyl cellulose solution in saline (hereinafter referred to as 0.5% methyl cellulose solution). The administration volume was 10 ml per 1 kg·body weight. […]
• (1) On day 1 at the learning experiment, the mice were acclimated in an experimental room for one hour or longer. • (2) A test compound or the vehicle was orally or intraperitoneally given. • (3) 20 minutes thereafter, (+)-HA966 was administered at 60 μg intracerebroventriculally. • (4) 15 minutes after the dosing of (+)-HA966, the each mouse was placed in the bright room of the experimental apparatus of the passive avoidance reaction test, where the mouse was left for 30 seconds. […] A significance was determined at p<0.05.

In the case of `CC(C)c1nnc(-c2ccc(-c3ccccc3)cc2)n1-c1ccccc1F` [Production Example 1, 3-Biphenyl-4-yl-4-(2-fluorophenyl)-5-isopropyl-4H-1,2,4-triazole], the IC50 in assay [1] is 360 nM. The same molecule gave a minimum effective dose in assay [2] of 3 mg/kg.
